The text below walks through data of patent publication US12344614B2, “Benzodiazepine derivatives as GABA a GAMMA1 PAM” (Hoffmann-La Roche Inc., priority 2021, dated 2025).

The structures appear in SMILES notation.

In general, Ki refers to the dissociation constant of the complex between target and ligand, obtained from inhibition or displacement.

Assay [1] has as its target human GABAA α5β2γ1 receptor (Homo sapiens (Human), UniProt P31644+Q8N1C3). Nature of the assay: Radioligand binding assay, competition for [3H]RO7239181, membranes from HEK293F cells. The conditions noted are these: read-out: Ki h-GABAA α5β2γ1; [3H]RO7239181 […], HEK293F membranes, 1 hour at 4° C., mean of two determinations. The method, then:
The affinity of compounds at GABAA γ1 subunit-containing receptors was measured by competition for [^3H]RO7239181 (67.3 Ci/mmol; Roche) binding to membranes from HEK293F cells (ThermoFisher R79007) expressing human (transiently transfected) receptors of composition α5β2γ1, α2β2γ1, α1β2γ1. For better protein expression of the α2 subunit-containing receptors, the 28 amino acid long signal peptide (Met1 to Ala28) of the human GABAA α2 subunit was substituted by the 31 amino acid long signal peptide (Met1 to Ser31) of human GABAA α5 subunit.
(§1) Harvested pellets from HEK293F cells expressing the different GABAA receptor subtypes were resuspended in Mannitol Buffer pH 7.2-7.4 (Mannitol 0.29M, Triethylamine 10 mM, Acetic acid 10 mM, EDTA 1 mM plus protease inhibitors (20 tablets Complete, Roche Diagnostics Cat. No. 05 056 489 001 per liter)), washed two times and then resuspended at 1:10 to 1:15 dilution in the same buffer. Cell disruption was performed by stirring the suspension in a Parr vessel #4637 at 435 psi for 15 minutes, and then the suspensions were centrifuged at 1000×g for 15 minutes at 4° C. (Beckman Avanti J-HC; rotor JS-4.2). The supernatant (S1) was transferred in a 21 Schott flask and the pellet (P1) was resuspended with Mannitol Buffer up to 175 ml. The resuspended pellet was transferred into a 250 ml Corning centrifugal beaker and centrifuged at 1500×g for 10 minutes at 4° C. (Beckman Avanti J-HC; rotor JS-4.2). The supernatant (S1) was then transferred in the 21 Schott flask and the pellet was discarded. The supernatants (S1) were centrifuged in 500 ml Beckman polypropylene centrifugal beaker at 15′000×g for 30 minutes at 4° C. (Beckman Avanti J-20 XP; rotor JLA-10.500). The pellet (P2) was resuspended with Mannitol Buffer 1:1 and frozen at −80° C. The supernatant (S2) was centrifuged in 100 ml Beckman polypropylene centrifugal tubes at 48000×g for 50 minutes at 4° C. (Beckman Avanti J-20 XP; rotor JA-18). The supernatant (S3) was discarded and the pellet (P3) was resuspended with 1:1 Mannitol Buffer. The P2 and P3 protein concentration was determined with the BIORAD Standard assay method with bovine serum albumin as standard and measured on the NANO-Drop 1000. The membrane suspension was aliquots (500 μl per tube) and stored at −80° C. until required.
(§2) Membrane homogenates were resuspended and polytronised (Polytron PT1200E Kinematica AG) in Potassium Phosphate 10 mM, KCl 100 mM binding buffer at pH 7.4 to a final assay concentration determined with a previous experiment.
Radioligand binding assays were carried out in a volume of 200 μL (96-well plates) which contained 100 μL of cell membranes, [^3H]RO7239181 at a concentration of 1.5 nM (α5β2γ1) or 20-30 nM (α1β2γ1, α2β2γ1) and the test compound in the range of [0.3-10000]×10^−9 M. Nonspecific binding was defined by 10×10^−6 (α5β2γ1) and 30×10^−6 M RO7239181 and typically represented less than 5% (α5β2γ1) and less than 20% (α1β2γ1, α2β2γ1) of the total binding. Assays were incubated to equilibrium for 1 hour at 4° C. and then, membranes were filtered onto unifilter (96-well white microplate with bonded GF/C filters preincubated 20-50 minutes in 0.3% Polyethylenimine) with a Filtermate 196 harvester (Packard BioScience) and washed 4 times with cold Potassium Phosphate 10 mM pH 7.4, KCl 100 mM binding buffer. After anhydrousing, filter-retained radioactivity was detected by liquid scintillation counting. Ki values were calculated using Excel-Fit (Microsoft) and are the means of two determinations.
Representative test results, obtained by the above described assay measuring binding affinity to HEK293 cells expressing human (h) receptors, are shown in the Table 1.

The next assay deals with h-GABA-A α2β2γ1 receptor (Homo sapiens (Human), UniProt P47869+Q8N1C3). Briefly: Two-electrode voltage clamp electrophysiology in Xenopus oocytes expressing GABAA receptors. Format: cell-based. Particulars: % modulation of GABA EC20 = 100*(Fold increase−1), compound at 30-fold Ki α2β2γ1. The method, then: Xenopus laevis oocytes at maturation stages V-VI were used for the expression of cloned mRNA encoding GABAA receptor subunits. Oocytes ready for RNA micro-injection were bought from Ecocyte, Castrop-Rauxel, Germany and stored in modified Barth's medium (composition in mM: NaCl 88, KCl 1, NaHCO3 2.4, HEPES 10, MgSO4 0.82, CaNO3 0.33, CaCl2 0.33, pH=7.5) at 20° C. until the experiment.
Oocytes were plated in 96-well plates for microinjection using the Roboinject automated instrument (MultiChannelSystems, Reutlingen, Germany). Approximately 50 nL of an aqueous solution containing the RNA transcripts for the subunits of the desired GABAA receptor subtype was injected into each oocyte. […] Oocytes were kept in modified Barth's medium (composition in mM: NaCl 88, KCl 1, NaHCO3 4, HEPES 10, MgSO4 0.82, CaNO3 0.33, CaCl, 0.33, pH=7.5) at 20° C. until the experiment.
Electrophysiological experiments were performed using the Roboocyte instrument (MultiChannelSystems, Reutlingen, Germany) on days 3 to 5 after the micro-injection of mRNA. During the experiment the oocytes were constantly superfused by a solution containing (in mM) NaCl 90, KCl 1, HEPES 5, MgCl2 1, CaCl2 1 (pH 7.4). Oocytes were impaled by two glass microelectrodes (resistance: 0.5-0.8 MΩ) which were filled with a solution containing KCl 1M+K-acetate 1.5 M and voltage-clamped to −80 mV. The recordings were performed at room temperature using the Roboocyte two-electrode voltage clamp system (Multichannelsystem). After an initial equilibration period of 1.5 min GABA was added for 1.5 min at a concentration evoking approximately 20% of a maximal current response (EC2O). After another rest interval of 2.5 min GABA was again added evoking a response of similar amplitude and shape. […] Current traces were recorded at a digitization rate of 10 Hz during and shortly before and after the GABA application.
Each compound and concentration was tested on at least 3 oocytes. Different oocytes were used for different compound concentrations.
For the analysis, the digitized current traces of the first and second GABA response were superimposed and, if necessary, rescaled to equal maximal amplitudes. The ratio between the two responses during the time interval of test compound application was calculated point by point. The extremum of the resulting “ratio trace” was taken as the efficacy (“Fold increase”) of the compound expressed as “% modulation of GABA EC20” (100*(Fold increase−1)).
On the technique in general: In two-electrode clamp one electrode senses voltage and the other passes current.

For assay [2], the target named is human GABAA α1β3γ2 receptor (Homo sapiens (Human), UniProt P14867+P18507). Nature of the assay: Radioligand binding assay, competition for [3H]Flumazenil, HEK293F cells. The conditions noted are these: read-out: Ki h-GABAA α1β3γ2; [3H]Flumazenil 1 nM, HEK293F membranes, 1 hour at 4° C., mean of two determinations. The method, then:
The affinity of compounds at GABAA γ2 subunit-containing receptors was measured by competition for [^3H]Flumazenil (81.1 Ci/mmol; Roche) binding to HEK293F cells expressing human (transiently transfected) receptors of composition α1β3γ2.
Harvested pellets from HEK293F cells expressing the different GABAA γ2 receptor subtypes were resuspended in Mannitol Buffer pH 7.2-7.4 and processed as described above for the cells expressing the GABAA γ1 subunit-containing receptors.
Assays were incubated to equilibrium for 1 hour at 4° C. and harvested onto GF/C uni-filters (Packard) by filtration using a Packard harvester and washing with ice-cold wash buffer (50 mM Tris; pH 7.5). After anhydrousing, filter-retained radioactivity was detected by liquid scintillation counting. Ki values were calculated using Excel-Fit (Microsoft) and are the means of two determinations.

Assay [3] concerns the target human GABAA α2β2γ1 receptor (Homo sapiens (Human), UniProt P47869+Q8N1C3). Nature of the assay: Radioligand binding assay, competition for [3H]RO7239181, membranes from HEK293F cells. As for the experimental part: The affinity of compounds at GABAA γ1 subunit-containing receptors was measured by competition for [^3H]RO7239181 (67.3 Ci/mmol; Roche) binding to membranes from HEK293F cells (ThermoFisher R79007) expressing human (transiently transfected) receptors of composition α5β2γ1, α2β2γ1, α1β2γ1.
as §1, §2
Assays were incubated to equilibrium for 1 hour at 4° C. and then, membranes were filtered onto unifilter (96-well white microplate with bonded GF/C filters preincubated 20-50 minutes in 0.3% Polyethylenimine) with a Filtermate 196 harvester (Packard BioScience) and washed 4 times with cold Potassium Phosphate 10 mM pH 7.4, KCl 100 mM binding buffer. After anhydrousing, filter-retained radioactivity was detected by liquid scintillation counting. Ki values were calculated using Excel-Fit (Microsoft) and are the means of two determinations.

Consider `C[C@@H]1N=C(c2nc(O)ccc2F)c2c(ccc(C(F)(F)F)c2Cl)-n2nc(C(=O)N3CC(F)C3)nc21` [Example 21, [(4S)-7-chloro-6-(3-fluoro-6-hydroxy-2-pyridyl)-4-methyl-8-(trifluoromethyl)-4H-[1,2,4]triazolo[1,5-a][1,4]benzodiazepin-2-yl]-(3-fluoroazetidin-1-yl)methanone], for which the results for the Ki in assay [1], in assay [2] and in assay [3] were 5.51 nM, over 30000 nM and 11.8 nM, respectively. Besides, the “Efficacy (GABA) %” value at h-GABA-A α2β2γ1 receptor is reported as 73%.
